This is an account of results in PMC3954708 (Bioorganic & medicinal chemistry letters, 2013).

The conditions of data set [1]: administration to mice; cited from earlier work.
Data set [2] has as its system UT-B. The note with it: cited from earlier work.
For data set [3] the following is noted: cited from earlier work.
The nature of data set [4]: microsomal stability with rat liver microsomes and NADPH, LCMS analysis. Type of data set: in vitro ADME. To be noted: liver microsomes. (Liver microsomes are a subcellular fraction often used to study metabolism.)
Data set [5] deals with T1, UT-B (Homo sapiens, UniProt Q13336).
T1 sequence (Q13336 1-389): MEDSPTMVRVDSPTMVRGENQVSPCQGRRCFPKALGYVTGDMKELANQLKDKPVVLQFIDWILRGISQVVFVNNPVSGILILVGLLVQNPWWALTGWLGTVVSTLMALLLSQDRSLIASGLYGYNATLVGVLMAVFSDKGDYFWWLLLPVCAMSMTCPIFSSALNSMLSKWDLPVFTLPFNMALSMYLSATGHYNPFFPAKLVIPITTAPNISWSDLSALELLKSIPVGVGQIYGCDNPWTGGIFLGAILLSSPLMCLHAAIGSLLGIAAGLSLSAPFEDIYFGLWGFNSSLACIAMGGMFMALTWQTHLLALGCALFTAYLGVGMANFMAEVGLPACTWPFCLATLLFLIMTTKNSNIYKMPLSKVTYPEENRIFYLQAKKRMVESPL
Kind of data set: erythrocyte lysis assay for UT-B inhibition. In kind it is cell-based, mouse.

Setting [6] is: IC50 (inhibitory potency, abstract), UT-B inhibition.
[7] abbreviates: IC50 (UT-B inhibition activity), mouse erythrocyte lysis assay (n = 3), fit to single-site saturation model.

The structures appear in SMILES notation.

In the case of `CCc1ccc(S(=O)(=O)c2nnn3c2nc(NCc2cccs2)c2sccc23)cc1` [Compound 1a], in data set [1], the “effect on urine osmolality” value is “reduced urine osmolality” and the “effect on urine output” value is recorded as “increased urine output”. For the same compound, the “mechanism of UT-B inhibition” value in data set [2] is “competitive mechanism”. In addition, in data set [3], the “microsomal degradation / hepatic oxidation” value was “underwent rapid oxidation by hepatic enzymes”. Regarding `CC(F)(F)c1ccc(S(=O)(=O)c2nnn3c2nc(NCc2cccs2)c2sccc23)cc1` [Compound 1c], the fraction remaining – broadly, the share of the starting amount still present when the sample was taken – at 0.5 h in data set [4] stood at 96%. Moreover, the “microsomal degradation / hepatic oxidation” value in data set [3] was “resisted microsomal degradation”. Turning to `Cc1csc(CNc2nc3c(S(=O)(=O)c4ccc(C(C)(F)F)cc4)nnn3c3ccsc23)c1` [Compound 4a], the IC50 (usually the concentration needed to halve the response being measured) in data set [5] (setting [6]) is ~40 nM. Same read-out and setting: for `CC(F)(F)c1ccc(S(=O)(=O)c2nnn3c2nc(NCc2ccsc2)c2sccc23)cc1` [Compound 4b] the value was ~40 nM.

Turning to `CC(F)(F)c1ccc(S(=O)(=O)c2nnn3c2nc(NCc2ccccc2)c2sccc23)cc1` [Compound 4d], in data set [5] (setting [7]), the IC50 is > 800 nM. For `CC(F)(F)c1ccc(S(=O)(=O)c2nnn3c2nc(NCC2CC2)c2sccc23)cc1` [Compound 4e], the IC50 in data set [5] (setting [7]) is > 800 nM.

In the case of `CC(F)(F)c1ccc(S(=O)(=O)c2nnn3c2nc(NCC2CCC2)c2sccc23)cc1` [Compound 4f], in data set [5] (setting [7]), the IC50 is > 800 nM.
